{
  "source": "patent US20090232735A1",
  "about": "“USE OF FRUCTOSE-BASED THERAPIES FOR THE TREATMENT OF CANCER” (CEDARS-SINAI MEDICAL CENTER, priority 2005, published 2009)",
  "type_in_all_cases": "cell-based, human",
  "key": {"[1]": {"system": "PANC-1 pancreatic cancer cells", "assay": "FACS cell cycle profile of PANC-1 cells", "conditions": "PANC-1, 5.5 mM sugar, 48 h", "experimental": "FIG. 15 depicts in the G0/G1 phase and the DNA synthesis (S) phase of pancreatic cells in glucose and fructose in accordance with an embodiment of the present invention. PANC-1 cells were plated in 2, and 5.5 mM glucose or 5.5 mM fructose for 48 h, after which cells were fixed in methanol, nuclei were stained with propidium iodide, and aliquots subjected to FACS analyzes.\nThis first result intrigued the inventors, but given there is little documentation regarding physiological fructose concentrations, the inventors first considered that the “apparent” pro-proliferative effects of fructose were simply a consequence of the highly stylized in vitro experimental conditions, and that if the pancreatic cancer cells were cultured in higher glucose concentrations, this would result in similar proliferative rates to those the inventors observed following culture in 5.5 mM fructose. Therefore, in the next experiments, the inventors compared proliferative rates of the PANC-1 pancreatic cancer cells following culture for 72 h in a range of fructose, and glucose concentrations (2-25 mM). This timepoint was chosen as the inventors had seen maximal pancreatic cancer cell proliferation in 5.5 mM fructose at 72 h. […] While not wishing to be bound by any particular theory, the inventors believe that this latter finding may be because the PANC-1 cells are proliferating at close to maximal capacity by 72 h, once they are exposed to comparatively low fructose concentrations (5 mM). MTS assay was employed to measure pancreatic cancer cell proliferative rates, which utilizes mitochondrial oxidation to quantify cell proliferation. As the inventors were examining carbohydrate-mediated effects, the inventors considered the change observed in proliferative rates, as measured by this assay, simply reflected changes in mitochondrial oxidation. Therefore, two additional methods were utilized to examine proliferative rates following fructose-treatment. […]"}, "[2]": {"system": "transketolase (TKK)", "assay": "Transketolase expression by Western blot in PANC-1 cells", "conditions": "PANC-1, 5.5 mM fructose, 24 h and 48 h", "experimental": "FIG. 33 depicts Western blot analysis of transketolase expression in pancreatic cancer PANC-1 cells following incubation in 2 mM glucose (lanes 1 & 4), 5.5 mM glucose (lanes 2 & 5), and 5.5 mM fructose for 24 h, and 48 h, respectively, in accordance with an embodiment of the present invention. Quantitation of TKK protein levels is depicted in the lower panel.\nThe inventors believe that fructose-treatment of pancreatic cancer cells led to an increase in TKK-driven nucleic acid synthesis, and thus fructose-treatment would result in an increase in either PANC-1 TKK expression and/or activity in comparison to equivalent glucose concentrations. Western blot analysis on protein lysates derived from fructose-, and glucose-treated PANC-1 cells were performed (5.5 mM fructose, and glucose for 24, and 48 h as per previous protocol) using a specific TKK antibody, and compared TKK expression in the fructose-, and glucose-treated PANC-1 cells. […] After gentle mixing the absorbance of the mixture was measured at 10 min intervals for 2 h at 340 nm. Transketolase activity was then derived from the difference in absorbance at 10, and 80 minutes, and expressed as nmol/min/million cells. […] Pancreatic cancer proliferation rates were then measured using the MTS assay (FIG. 35)."}, "[3]": {"system": "fructokinase-1 (FK-1) mRNA", "assay": "Fructokinase-1 mRNA by RT-PCR in MCF-7 cells", "conditions": "MCF-7, 5 mM sugar, compared with 2 mM glucose", "experimental": "FIG. 7 depicts fructokinase-1 expression in accordance with an embodiment of the present invention. Breast cancer cells (MCF-7) express Fructokinase-1 (FK-1). RT-PCR was used to measure fructokinase-1 (FK-1) mRNA levels in MCF-7 cells following growth in 2 mM glucose, 5.5 mM glucose, or 5.5 mM fructose for 24 h, and in two human breast cancers (BT 1 & 2), and matched adjacent normal breast tissue (NB 1 & 2) from the same individual. […] Human liver, and exclusion of template served as positive and negative controls.\nThe inventors used RT-PCR analysis and specific primer pairs (SEQ ID NO: 1 (3′[…]), SEQ ID NO: 2 (5′[…])) to examine fructokinase-1 (FK-1) mRNA levels in glucose- or fructose-treated breast cancer cells. […] Also examined were FK-1 mRNA levels in two surgically resected human breast cancers, and paired adjacent normal breast tissue from the same individual. FK-1 mRNA was detectable in both normal and tumor tissue."}},
  "data": [
    {"smiles": "O=C(CO)[C@@H](O)[C@H](O)[C@H](O)CO", "note": "[fructose]", "values": [
      {"measurement": "increase of cells in S-phase in comparison to 2 mM glucose", "setting": "[1]", "result": "~17", "unit": "%"},
      {"measurement": "percentage of cells in S-phase", "setting": "[1]", "result": 47, "unit": "%"},
      {"measurement": "percentage of cells in resting G0/G1", "setting": "[1]", "result": 21.2, "unit": "%"},
      {"measurement": "TKK levels higher than 5.5 mM glucose-treated cells", "setting": "[2]", "result": "~2", "unit": "fold"},
      {"measurement": "FK-1 mRNA levels (RT-PCR)", "setting": "[3]", "result": "highest FK-1 levels"}
    ]}
  ]
}
